Assays:
Type in all cases: in vivo, C57/B6 mice
[1] = tested on: Bacteroidetes and Firmicutes in the cecal microbiota; assay: Phylum-level analysis of cecal bacterial populations by 454 sequencing of 16S rRNA V3 region; details: cecal contents, Mann-Whitney U-test
Protocol: Approximately 10 mg of fecal or cecal samples were suspended in a solution containing 500 μl of extraction buffer (200 mM Tris (pH 8.0), 200 mM NaCl, 20 mM EDTA), 210 μl of 20% SDS, 500 μl of a mixture of phenol:chloroform (pH 7.9, 24:24), and 500 μl of a slurry of 0.1 mm-diameter zirconia beads. Cells were lysed by mechanical disruption with a bead beater set on high for 2 min at room temperature, followed by extraction with phenol:chloroform (pH 7.9, 24:24), and precipitation with isopropanol. […]
Phylum-level analysis of bacterial populations in […] mice. […] Mouse cecal contents were analyzed by 454 pryosequencing (Roche). […] For this experiment, the sequencing run produced 555,233 barcoded sequences with an average read length of 188±2.5 base pairs, an average read/barcode of 5784±676, and a read quality of 35. […] Order-level sequence data were summated to the phylum level and analyzed. […]
In another analysis, the proportion of all of the Eubacteria detected that were represented by the Firmicutes was examined. As shown in FIGS. 13A-B, % body fat measured by densitometry of the control and STAT mice (A) correlates with the ratio of Firmicute/Eubacteria as determined at the family level by 454 sequencing (B). […]

[2] = tested on: bacterial populations of cecal contents; assay: RAPD-PCR characterization of the microbial population in cecal contents; details: DNA from cecal contents; primers 1254, OPL-02, OPL-12
Protocol: (§1) Approximately 10 mg of fecal or cecal samples were suspended in a solution containing 500 μl of extraction buffer (200 mM Tris (pH 8.0), 200 mM NaCl, 20 mM EDTA), 210 μl of 20% SDS, 500 μl of a mixture of phenol:chloroform (pH 7.9, 24:24), and 500 μl of a slurry of 0.1 mm-diameter zirconia beads. Cells were lysed by mechanical disruption with a bead beater set on high for 2 min at room temperature, followed by extraction with phenol:chloroform (pH 7.9, 24:24), and precipitation with isopropanol. After the sample was suspended in 100 μl of TE buffer, the extraction products were further purified using a modified protocol from the ExtractMaster Fecal DNA extraction kit (Epicentre Technologies, Madison Wis.). Residual protein was precipitated using the Protein Precipitation reagent and inhibitors were removed through an Inhibitor Removal Resin spin column. The final product was suspended in 100 μl of TE buffer.
Characterization of the microbial population in the fecal samples was performed using random amplified polymorphic DNA PCR(RAPD-PCR). […] The gels were stained with ethidium bromide and imaging was analyzed using imaged. […]
The positive control (+) was DNA from P. acnes strain VPI 0389. […] The letters A, B, C over columns C10, P1, and P2, respectively, were analyzed be measuring luminescence (see FIGS. 9A-B). […]

[3] = Body composition (fat mass, lean mass, % body fat, bone mineral density) by DEXA in sub-therapeutic antibiotic treated (STAT) mice; details: at 6 to 9 weeks, sub-therapeutic dose in drinking water, vs control mice
Description: C57/B6 mice were obtained at weaning (21 days) from Jackson Laboratories (Bar Harbor, Me.). They were weighed and then distributed in cages so that the mean weights of the mice in each cage were equal. The mice were then allowed to adjust to the NYU animal facility. At day 23 of life, the antibiotic-exposure experiment began. Animals were allowed ad libitum access to food and water and maintained with a 12-hour light/dark cycle. The mice were fed standard laboratory chow (Purina Mills International Diet # 5001). These conditions were continued until the time of sacrifice.
Mice were given standard water (pH 6.8) or water containing the following antimicrobial agents (at sub-therapeutic levels) in groups of 5-10 mice per experimental condition.
Body composition (fat mass, lean mass, percent [%] body fat) was determined using dual energy X-ray absorptiometry (DEXA) with a Lunar PIXImus II mouse densitometer (PIXImus, Fitchburg, Wis.) at the time of sacrifice. Each mouse was scanned individually. Data collected from the scan included fat and lean body mass, percent body fat, and bone mineral density.
Since maximal growth of mice in these experiments was during the first 2 weeks after weaning, a group of mice were sacrificed at two weeks, and bone mineral density (BMD) and fat phenotypes assessed. […]

[4] = tested on: total fecal eubacterial and fungal levels; assay: Total microbial counts in fecal pellets by qPCR (16S rRNA, fungal ITS2)
Protocol: At approximately weekly intervals, a fresh fecal pellet was collected from each individual mouse and frozen at −80° C. until DNA could be extracted. At the time of sacrifice, a fecal pellet was collected, as well as the cecal contents.
as §1, with “Residual protein was precipitated using the Protein Precipitation reagent and inhibitors were removed through an Inhibitor Removal Resin spin column. The final product was suspended in 100 μl of TE buffer.” left out
Analysis of total microbial counts in STAT Mice. […] This possibility was addressed by examining total fecal eubacterial levels in penicillin-treated and control mice by a standardized quantitative PCR (qPCR) using primers […] […] Total fungal levels were determined by qPCR using primers directed to the conserved ITS2 region in the fungal rrn operon ITS1F […] […]

[5] = tested on: Butyryl CoA transferase (BCoAT)-encoding genes; assay: Butyryl CoA transferase (BCoAT) gene qPCR on cecal specimens; details: cecal samples
Protocol: as §1
To test the effect of colonic microbiota on butyrate metabolism, a PCR assay was performed to detect genes encoding an enzyme, Butyryl CoA transferase (BCoAT), regardless of the taxonomic origin of the gene. The following primers were used: BCoATscrF […] (SEQ ID NO: 11) and BCoATscrR […] (SEQ ID NO: 12). BCoAT plays a central role in butyrate metabolism, which is an important short-chain fatty acid (SCFA) in colonic metabolism and provides energy to colonocytes (FIG. 14). […]

Compound	Firmicutes and B/F ratio compared to the controls [1]	RAPD-PCR products compared to control mice [2]	more fat mass than controls (normalized mean fat mass) [3] [%]	number of copies of bacterial or fungal rrn elements vs control [4]	BCoAT densities compared to controls [5]
CN[C@H](CC(C)C)C(=O)N[C@H]1C(=O)N[C@@H](CC(N)=O)C(=O)N[C@H]2C(=O)N[C@H]3C(=O)N[C@H](C(=O)N[C@H](C(=O)O)c4cc(O)cc(O)c4-c4cc3ccc4O)[C@H](O)c3ccc(c(Cl)c3)Oc3cc2cc(c3O[C@@H]2O[C@H](CO)[C@@H](O)[C@H](O)[C@H]2O[C@H]2C[C@](C)(N)[C@H](O)[C@H](C)O2)Oc2ccc(cc2Cl)[C@H]1O [vancomycin, Vancomycin]	statistically significant	varying sets of bands			
CN(C)[C@@H]1C(O)=C(C(N)=O)C(=O)[C@@]2(O)C(O)=C3C(=O)c4c(O)ccc(Cl)c4[C@@](C)(O)[C@H]3C[C@@H]12 [chlortetracycline, Chlortetracycline]			8.1±3.4		
Penicillin		clear differences	22.9±8.1	no significant difference	increase
